Structures can show the parent of a compound that is named as a salt.
Key:
Assay type in all cases: physicochemical
[1] = Final pH of the solubility sample solutions in aqueous media; conditions: for pH of the solubility sample, 0.9% Sodium Chloride: 0.9% sodium chloride (blank 5.8); for pH of the solubility sample, 5% Dextrose: 5% dextrose (blank 4.7); for pH of the solubility sample, FaSSGF: FaSSGF (blank 1.5, 1.6); for pH of the solubility sample, FaSSIF: FaSSIF (blank 6.5, 6.5); for pH of the solubility sample, FeSSIF: FeSSIF (blank 4.9, 5.0); for pH of the solubility sample, Water: water (blank 6.3)
Summary of the method: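 25HC3S salts shaken as excess-solid suspensions in aqueous media at room temperature (210 motions/min) for one day. Aliquots centrifuged at 12000 rpm for 12–15 min; clear supernatant assayed undiluted by HPLC.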

[2] = Dynamic vapor sorption (DVS), hygroscopicity; conditions: DVS; for Water uptake (weight gain) up to about 95% relative humidity: 5% to about 95% RH
[3] = Hausner ratio and compressibility index of 25HC3S salts; conditions: for Compressibility Index: Table C3 heads this index in %
Summary of the method: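 Powder poured into a 5 mL graduated cylinder to about 5.0 mL (Vo), tapped 200 then 100 more times on a hard surface; final volume Vf recorded after 300 taps. Compressibility index and Hausner ratio calculated from Vo and Vf; flow character classed per USP <1174>.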

[4] = Appearance (color, clumping, flowability) of stored 25HC3S salts
[5] = Solubility of 25HC3S salts after one day at room temperature (HPLC, as free acid); conditions: one day; for Solubility in FaSSGF: Fasted State Simulated Gastric Fluid, pH 1.6, room temperature, LOD 0.0007 mg/mL
Summary of the method: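 25HC3S salts were shaken with excess solid at room temperature for one day in organic solvents or aqueous/biorelevant media (FaSSIF, FeSSIF, FaSSGF), then centrifuged. Supernatants were assayed by HPLC against a free-acid standard curve (11 μg/mL to 1.5 mg/mL); values are mg/mL free acid, LOD 0.0007 mg/mL.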

[6] = listed as 25HC3S t-butylammonium
[7] = listed as crystalline 25HC3S t-butylammonium
[8] = room temperature, listed as crystalline 25HC3S zinc
[9] = listed as crystalline 25HC3S potassium
[10] = room temperature, listed as crystalline 25HC3S potassium
[11] = listed as 25HC3S tromethammonium
[12] = listed as crystalline 25HC3S tromethammonium

CC(CCCC(C)(C)O)C1CCC2C3CC=C4CC(OS(=O)(=O)O)CCC4(C)C3CCC12C (stereo not shown) [Salt #12]
pH of the solubility sample, 0.9% Sodium Chloride [1, 6]: 8.4 | pH of the solubility sample, 5% Dextrose [1, 6]: 7.2 | pH of the solubility sample, FaSSGF [1]: 1.6 | pH of the solubility sample, FaSSIF [1, 6]: 6.5 | pH of the solubility sample, FeSSIF [1]: 5.0 | pH of the solubility sample, Water [1, 6]: 8.5 | Water uptake (weight gain) up to about 95% relative humidity [2, 7]: less than 0.5% | Reversibility of water uptake (in words) ([2]; RH reduced from 95% to 5%, listed as crystalline 25HC3S t-butylammonium): reversibly lose all that water | Hygroscopicity (in words) [2, 7]: low hygroscopicity | Compressibility Index [3, 6]: 33 | Hausner Ratio [3, 6]: 1.48 | Appearance ([4]; 2-8° C., 3 wk, listed as 25HC3S t-butylammonium): White, free flowing powder with clumping | Appearance ([4]; 2-8° C., 5 wk): White, free flowing powder with clumping | Appearance ([4]; 80° C., 3 wk, listed as 25HC3S t-butylammonium): White, free flowing powder with clumping | Appearance ([4]; 80° C., 5 wk): White, free flowing powder with clumping | Solubility in FaSSGF (in words) ([5]; room temperature): high solubility | Solubility in FaSSIF (in words) ([5]; FaSSIF, room temperature): high solubility | Solubility in FaSSIF (in words) ([5]; FaSSIF, room temperature, listed as crystalline 25HC3S t-butylammonium): relatively high solubility | Solubility in FeSSIF (in words) ([5]; FeSSIF, room temperature): high solubility

CC(CCCC(C)(C)O)C1CCC2C3CC=C4CC(OS(=O)(=O)O)CCC4(C)C3CCC12C (stereo not shown) [Salt #3]
pH of the solubility sample, 0.9% Sodium Chloride ([1]; listed as 25HC3S zinc): 6.4 | pH of solubility sample solution in 0.9% sodium chloride ([1]; 0.9% sodium chloride (medium pH 5.8)): 6.4 | pH of the solubility sample, 5% Dextrose ([1]; listed as 25HC3S zinc): 7.1 | pH of the solubility sample, FaSSGF [1]: 1.6 | pH of the solubility sample, FaSSIF ([1]; listed as 25HC3S zinc): 6.5 | pH of the solubility sample, FeSSIF [1]: 5.0 | pH of solubility sample solution in water [1]: 7.4 | pH of the solubility sample, Water ([1]; listed as 25HC3S zinc): 7.4 | Water uptake (change in mass), 25% to 45% RH ([2]; between 25% and 45% relative humidity): about 2.8% | Compressibility Index ([3]; listed as 25HC3S zinc): 28 | Hausner Ratio ([3]; listed as 25HC3S zinc): 1.39 | Appearance ([4]; 2-8° C., 3 wk, listed as 25HC3S zinc): White, free flowing powder with clumping | Appearance ([4]; 60° C., 1 wk (after 3 weeks at 2-8° C.), listed as 25HC3S zinc): Light brown, melted material stuck to | Appearance after 3 weeks at 80° C. ([4]; 80° C.): completely burned | Appearance ([4]; 80° C., 3 wk, listed as 25HC3S zinc): Dark brown, melted material stuck to | Solubility in 5% Dextrose ([5]; 5% dextrose, room temperature, as free acid, ND = not detected, detection limit 0.7 μg/mL, 1440 min, listed as 25HC3S zinc): 13 µg/mL | Solubility in ethanol (in words) ([5]; EtOH, room temperature, listed as crystalline 25HC3S zinc): relatively high solubility | Solubility in FaSSGF (in words) [5, 8]: low solubility | Solubility in FaSSIF ([5]; FaSSIF, room temperature, as free acid, 1440 min, listed as 25HC3S zinc): 133 µg/mL | Solubility in FaSSGF ([5]; as free acid): no solubilized drug was detected | Solubility in FeSSIF ([5]; FeSSIF, room temperature, as free acid, 1440 min, listed as 25HC3S zinc): 673 µg/mL | Solubility in ACN ([5]; acetonitrile, room temperature, as free acid, 1440 min, listed as 25HC3S zinc): 100 µg/mL | Solubility in EtOH ([5]; ethanol, room temperature, as free acid, ≥ = did not reach saturation, 1440 min, listed as 25HC3S zinc): 31200 µg/mL | Solubility in IPA ([5]; isopropyl alcohol, room temperature, as free acid, 1440 min, listed as 25HC3S zinc): 3500 µg/mL | Solubility in MeOH ([5]; methanol, room temperature, as free acid, ≥ = did not reach saturation, 1440 min, listed as 25HC3S zinc): 39500 µg/mL | Solubility in saline / 0.9% sodium chloride (in words) [5, 8]: low solubility | Solubility in H2O ([5]; water, room temperature, as free acid, ND = not detected, detection limit 0.7 μg/mL, 1440 min, listed as 25HC3S zinc): 6 µg/mL

CC(CCCC(C)(C)O)C1CCC2C3CC=C4CC(OS(=O)(=O)O)CCC4(C)C3CCC12C (stereo not shown) [Salt #1]
pH of the solubility sample, 0.9% Sodium Chloride ([1]; listed as 25HC3S potassium): 8.4 | pH of the solubility sample, 5% Dextrose ([1]; listed as 25HC3S potassium): 7.3 | pH of the solubility sample, FaSSGF [1]: 1.6 | pH of the solubility sample, FaSSIF ([1]; listed as 25HC3S potassium): 6.5 | pH of the solubility sample, FeSSIF [1]: 5.0 | pH of solubility sample solution in water [1]: 8.9 | pH of the solubility sample, Water ([1]; listed as 25HC3S potassium): 8.9 | Water uptake (weight gain) up to about 95% relative humidity [2, 9]: 2% | Hygroscopicity (in words) [2, 9]: limited hygroscopicity | Compressibility Index ([3]; listed as 25HC3S potassium): 26 | Hausner Ratio ([3]; listed as 25HC3S potassium): 1.35 | Appearance ([4]; 2-8° C., 3 wk, listed as 25HC3S potassium): White, free flowing powder with some | Appearance ([4]; 60° C., 1 wk (after 3 weeks at 2-8° C.), listed as 25HC3S potassium): White, free flowing powder with some | Appearance after 3 weeks at 80° C. ([4]; 80° C.): completely burned | Appearance ([4]; 80° C., 3 wk, listed as 25HC3S potassium): Dark brown powder, stuck to bottom of | Solubility in FaSSGF (in words) [5, 10]: low solubility | Solubility in FaSSGF ([5]; as free acid, 1440 min): 2 µg/mL | Solubility in saline / 0.9% sodium chloride (in words) [5, 10]: low solubility

CC(CCCC(C)(C)O)C1CCC2C3CC=C4CC(OS(=O)(=O)O)CCC4(C)C3CCC12C (stereo not shown) [Salt #8]
pH of the solubility sample, 0.9% Sodium Chloride [1, 11]: 7.2 | pH of the solubility sample, 5% Dextrose [1, 11]: 7.2 | pH of the solubility sample, FaSSGF [1]: 1.6 | pH of the solubility sample, FaSSIF [1, 11]: 6.5 | pH of the solubility sample, FeSSIF [1, 11]: 4.9 | pH of the solubility sample, Water [1, 11]: 8.4 | Water uptake (weight gain) up to about 95% relative humidity [2, 12]: over 20% | Hygroscopicity (in words) [2, 12]: hygroscopic | Compressibility Index [3, 11]: 28 | Hausner Ratio [3, 11]: 1.39 | Appearance ([4]; 2-8° C., 3 wk, listed as 25HC3S tromethammonium): White, free flowing powder with clumping | Appearance ([4]; 2-8° C., 5 wk): White, free flowing powder with clumping | Appearance ([4]; 80° C., 3 wk, listed as 25HC3S tromethammonium): White, free flowing powder with clumping | Appearance ([4]; 80° C., 5 wk): White, free flowing powder with clumping | Solubility in FaSSGF (in words) ([5]; room temperature): high solubility | Solubility in FaSSIF (in words) ([5]; FaSSIF, room temperature): high solubility | Solubility in FeSSIF (in words) ([5]; FeSSIF, room temperature): high solubility | Solubility in saline / 0.9% sodium chloride (in words) ([5]; room temperature, listed as crystalline 25HC3S tromethammonium): low solubility

Source: US20260317367A1, “SALTS INCLUDING CRYSTALLINE SALTS OF 25-HYDROXY-CHOLEST-5-EN-3-SULFATE AND METHODS FOR PREPARING SAME” (Durect Corporation, priority 2022, published 2026)
